Test results taken from patent US20060252798A1, “Metal ion chelators and therapeutic use thereof” (priority 2003, published 2006).
Like-named read-outs stand apart in the source and are kept apart here.

How the values were obtained:
[1] = tested on: intracellular ROS; experiment: Intracellular ROS assay (DCF-DA, flow cytometry), M109 cells; assay type: cell-based, mouse; settings: 50 μM, 10 min, positive control
Method: Intracellular ROS generation was assessed using the cell-permeable dye 2′,7′-dichlorofluorescein-diacetate (DCF-DA) (Sigma). DCF-DA readily diffuses into cells and becomes highly fluorescent when oxidised by O2^•−, H2O2, or OH^−.^29 Cellular fluorescence intensity is directly proportional to the level of intracellular ROS.^29 M109 cells (1×10^5 cells/well) were incubated with or without 1 μM Dp44mT for 0-48 h or 50 μM H2O2 (positive control) for 10 min at 37° C. The cells were then incubated with DCF-DA (5 μM) for 20 min at 37° C., washed twice, and detached from the culture plates. The fluorescence of oxidised DCF in cells was measured using flow cytometry.^29)
To test whether induction of h-cytc release from the mitochondrion (FIG. 15A) and the imbalance of Bcl-2/Bax expression (FIG. 15B) was due to the presence of ROS, intracellular ROS were measured by flow cytometry using the DCFH-DA probe which becomes fluorescent when oxidised by O2^•−, H2O2, or OH^−.^29 Incubation of M109 cells with Dp44mT (1 μM) increased the levels of oxidised probe as a function of time. After 2 h, a 25±10% increase in oxidised DCFH-DA fluorescence was found compared to the 0 h time point, and this increased to 486±96% after 48 h (FIG. 15C). For comparison, a 10 min incubation with the positive control, H2O2 (50 μM), increased fluorescence to 1312±46% of the 0 h time point (FIG. 15C)

[2] = tested on: iron regulatory proteins (IRPs); experiment: IRP-RNA-binding activity, gel-retardation assay, SK-N-MC cells; assay type: cell-based, human; settings: DFO 100 μM, FAC 100 μg/ml, other chelators 25 μM, 20 h (FIG. 8)
[3] = tested on: SK-N-MC neuroepithelioma cells; experiment: MTT cellular proliferation assay, SK-N-MC; assay type: cell-based, human
Method: […] […] After this incubation, 0.01 mL of MTT was added to each well and the plates incubated for 2 h at 37° C. The cells were then solubilised by adding 0.1 mL of 10% SDS-50% isobutanol in 0.01 M HCl and the plates then read at 570 nm on a scanning multiwell spectrophotometer (Titertek Multiscan; Beckman Instruments Inc, California). MTT colour formation was directly proportional to the number of viable cells.
The effect of the compounds on the proliferation of SK-N-MC neuroepithelioma cells was examined using the MTT assay (described above).
(§1) Dp2mT served as a negative control.

[4] = tested on: DU 145 prostate cancer; experiment: MTT cellular proliferation assay, DU 145; assay type: cell-based; settings: 0-50 μM, 72 h, 2 experiments
Method: (§2) The final concentration of the compounds was 0.39-50 μM. […] […] After this incubation, 0.01 mL of MTT was added to each well and the plates incubated for 2 h at 37° C. The cells were then solubilised by adding 0.1 mL of 10% SDS-50% isobutanol in 0.01 M HCl and the plates then read at 570 nm on a scanning multiwell spectrophotometer (Titertek Multiscan; Beckman Instruments Inc, California). MTT colour formation was directly proportional to the number of viable cells.
(§3) At the end of the incubation period, cell density was determined by the MTT assay (described above).

[5] = tested on: MRC-5 fibroblasts; experiment: MTT cellular proliferation assay, MRC-5 fibroblasts; assay type: cell-based, human
Method: as §2
The MRC-5 cell type is a normal human lung fibroblast cell strain that is mortal and senesces after a number of passages in vitro. The SK-N-MC neuroepithelioma cell type is immortal.
as §1

[6] = tested on: H69AR lung cancer; experiment: MTT cellular proliferation assay, H69AR; assay type: cell-based; settings: 0-50 μM, 72 h, 1 experiment
Method: as §2, §3

[7] = tested on: IMR-32 Neuroblastoma; experiment: MTT cellular proliferation assay, IMR-32; assay type: cell-based; settings: 0-50 μM, 72 h, 1 experiment
Method: as §2, §3

[8] = tested on: SK-N-MC neuroepithelioma cells; experiment: 59Fe mobilization from prelabelled SK-N-MC neuroepithelioma cells; assay type: cell-based, human
Method: The effect of chelators on ^59Fe release from prelabelled cells was studied using standard procedures.^18 Cells were prelabelled with ^59Fe-transferrin (0.75 μM) for 3 h at 37° C. […] The overlying medium was then removed and placed into γ-counting tubes. The cells were removed from the petri dishes in 1 ml of BSS using a plastic spatula and transferred to a separate set of γ-counting tubes.
The ability of the compounds to mobilise ^59Fe from SK-N-MC neuroepithelioma cells was assessed after a 3 h labelling period with ^59Fe-Tf (0.75 μM) at 37° C. […]
DFO and 311 were used as internal standards.

[9] = tested on: SK-N-MC neuroepithelioma cells; experiment: 3H-leucine incorporation by SK-N-MC cells; assay type: cell-based, human; settings: 20 h incubation then 2 h label; Mean ± SD, 4 experiments
Method: (§4) After a 20 h incubation of the SK-N-MC cells with a selection of analogues, ^3H-thymidine, ^3H-leucine, or ^3H-uridine (1 μCi/ml) was added for 2 h at 37° C. The cells were detached from the 96 well plate using 1 mM EDTA in Ca(II)/Mg(II)-free PBS and collected and washed using a cell harvester (Tomtec Harvester 96, Linbrook, Queensland, Australia). Radioactivity was measured on a P-scintillation counter (LKB Wallace, Turku, Finland).

[10] = tested on: GADD45 and WAF1 mRNA; experiment: Northern blot of WAF1 and GADD45 mRNA expression in SK-N-MC cells; assay type: cell-based, human; settings: DFO 100 μM, other chelators 25 μM, 20 h at 37° C. (FIG. 7)
Method: FIG. 7. […] Northern blotting was performed using standard procedures (see Example 6).
Northern blot analysis was performed by isolating total RNA using the Total RNA Isolation Reagent (Advanced Biotechnologies Ltd, Surrey, United Kingdom). The membranes were hybridised with probes specific for human WAF1, GADD45, and β-actin. The WAF1 probe consisted of a 1 kb fragment from pSXV (ATCC; Cat. No. 79928). The GADD45 probe consisted of a 760 bp fragment from human GADD45 cDNA cloned into pHu145B2 (kindly supplied by Dr. Albert Fornace, National Cancer Institute, NIH, Maryland). The β-actin probe consisted of a 1.4 kb fragment from human β-actin cDNA cloned into pBluescript SK− (ATCC; Cat. No. 37997).

[11] = tested on: NCI H2452 mesothelioma; experiment: MTT cellular proliferation assay, NCI H2452; assay type: cell-based; settings: 0-50 μM, 72 h, 3 experiments
Method: as §2, §3

[12] = tested on: SK-N-MC neuroepithelioma cells; experiment: 3H-uridine incorporation by SK-N-MC cells; assay type: cell-based, human; settings: 20 h incubation then 2 h label; Mean ± SD, 3 experiments
Method: as §4

[13] = tested on: SK-N-MC neuroepithelioma cells; experiment: 3H-thymidine incorporation by SK-N-MC cells; assay type: cell-based, human; settings: 20 h incubation then 2 h label; Mean ± SD, 4 experiments
Method: as §4

[14] = tested on: SK-N-MC neuroepithelioma cells; experiment: 59Fe uptake from 59Fe-transferrin by SK-N-MC neuroepithelioma cells; assay type: cell-based, human; settings: 0.5-50 μM, 3 h; PCTH internal control (FIG. 5B)
Method: The cells were then placed on ice and washed four times with ice-cold Hank's balanced salt solution (BSS) to remove non-specifically bound ^59Fe-Tf. Cells were then incubated with the general protease, pronase (1 mg/ml), for 30 min at 4° C. to remove membrane-bound ^59Fe and Tf.
PCTH was used as an internal control.

[15] = tested on: Ndrg1; experiment: Ndrg1 expression in MCF-7 cells (Western blotting); assay type: cell-based, human; settings: 25 μM, 24 h, MCF-7 cells (FIG. 16)
Method: FIG. 16. […] The expression of Ndrg1 and β-actin protein levels were assessed by Western blotting.
MCF-7 cells were incubated for 24 h with a range of metal ion chelators. […] Dp2mT was used as a negative control, […]

[16] = tested on: M109 carcinoma cells; experiment: 59Fe uptake from 59Fe-Tf by M109 cells; assay type: cell-based, mouse; settings: 1 μM
Method: The ability of the compound Dp44mT to inhibit the growth of M109 lung carcinoma cells in mice was assessed. Studies were performed using M109 carcinoma cells in culture to determine the effect of Dp44mT on mobilising ^59Fe from these cells (FIG. 11C) and inhibiting ^59Fe uptake from ^59Fe-Tf (FIG. 11D). As internal controls, cells were incubated with DFO and 311. The effect of compound concentration on increasing ^59Fe mobilisation from M109 cells was examined by labelling cells with ^59Fe-Tf (0.75 μM) for 3 h at 37° C. followed by washing and reincubation with the respective compounds (0.2-25 μM) for 3 h at 37° C. (FIG. 11C). […] In contrast, 311 increased cellular ^59Fe release from 8±1% (control medium) to […] at 5 μM (FIG. 11C). For Dp44mT ^59Fe release plateaued at 2 μM, resulting in the efflux of 48±2% of ^59Fe (FIG. 11C).
At 1 μM, 311 reduced ^59Fe uptake to 40±4% of the control. […] Dp44mT had similar activity to 311 up to a concentration of 5 μM, where it reduced ^59Fe uptake to 30±1% of the control (FIG. 11D).

[17] = tested on: MCF-7 breast cancer cells; experiment: MTT cellular proliferation assay, MCF-7; assay type: cell-based, human; settings: values given in Example 8; read-out: IC50, anti-proliferative activity in MCF-7 cells
Method: […] […] […] After this incubation, 0.01 mL of MTT was added to each well and the plates incubated for 2 h at 37° C. The cells were then solubilised by adding 0.1 mL of 10% SDS-50% isobutanol in 0.01 M HCl and the plates then read at 570 nm on a scanning multiwell spectrophotometer (Titertek Multiscan; Beckman Instruments Inc, California). MTT colour formation was directly proportional to the number of viable cells.
as §1
(§5) Dp2mT served as a negative control as the methyl group at the 2-position hinders Fe-chelation.

[18] = tested on: SK-Mel-28 melanoma cells; experiment: MTT cellular proliferation assay, SK-Mel-28; assay type: cell-based, human; settings: Table 3, 72 h, mean ± SD
Method: as §2, §1, §5

[19] = tested on: HEP G2 Hepatoma; experiment: MTT cellular proliferation assay, HEP G2; assay type: cell-based; settings: 0-50 μM, 72 h, 1 experiment
Method: as §2, §3

[20] = Table 2, MTT assay, 90 h incubation, Mean ± SD, 4 experiments, read-out: IC50 Values of Chelators

IC50 [3, 20]	IC50 [4]	IC50 [6]	IC50 [7]	Compound	IRP-RNA binding activity [2]	3H-Leucine Incorporation [9]	GADD45 and WAF1 mRNA expression [10]	IC50 [11]	3H-Uridine Incorporation [12]	3H-Thymidine Incorporation [13]	other results
				OO [H2O2]							fluorescence [1]: 1312±46 % of the 0 h time point
				ferric ammonium citrate [FAC]	decreased						
3 ± 1 µM	1.43 µM	0.78 µM	0.3 µM	di-2-pyridylketone 2-thiophenecarboxaldehyde hydrazone [PKTH]		19 ± 8 % Control	pronounced effect	0.73 µM	5 ± 1 % Control	0.04 ± 0.01 % Control	IC50 ([5]; Example 4c, FIG. 6, read-out: IC50 values in fibroblasts): 16 µM; 59Fe mobilisation as a function of concentration ([8]; 0.5-50 μM, 3 h, PCTH internal control (FIG. 5A)): more effective than PCTH; cellular 59Fe released ([8]; chelator 1 μM, 3 h reincubation at 37° C. (FIG. 5A)): 26%; prevention of 59Fe uptake as a function of concentration [14]: higher efficacy than the control PCTH
3 ± 2 µM	1.94 µM	0.97 µM	0.3 µM	O=C(NN=Cc1c(O)ccc2ccccc12)c1ccncc1 [compound 311, 2-hydroxy-1-naphthylaldehyde isonicotinoyl hydrazone]	increase	2 ± 1 % Control	up-regulation	0.47 µM	5 ± 2 % Control	0.1 ± 0.1 % Control	up-regulation of Ndrg1 [15]: markedly increased; IC50 ([3]; Table 3, 0-25 μM, 72 h, MTT, mean ± SD, read-out: IC50 SK-N-MC neuroepithelioma): 0.3 µM; 59Fe uptake [16]: 40±4 % of the control; IC50 ([5]; Table 3, normal cells, 72 h, MTT, read-out: IC50 MRC-5 fibroblasts): > 25 µM; IC50 [17]: 0.6 µM; IC50 [18]: 0.9 ± 0.5 µM; IC50 [19]: 1.18 µM
